Results on two molecules are retold here after article PMC10662218 (RSC Advances, 2023).

In this assay the target is Human insulin (monomeric insulin) (Homo sapiens, UniProt P01308). Put plainly: intrinsic Tyr fluorescence quenching. Format: binding. The following applies: insulin 25 μM, compound 2-24 μM, double-log.
Chain of Human insulin (monomeric insulin) (P01308 25-54): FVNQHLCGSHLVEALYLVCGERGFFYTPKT
Chain of Human insulin (monomeric insulin) (P01308 90-110): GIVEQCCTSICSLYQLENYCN

On to `COc1cccc(/C=N/C(C)(C)C)c1O` [3a, (E)-2-((tert-butylimino)methyl)-6-methoxyphenol], for which the “K b, 10^4 (M^-1) / 293 K” value is recorded as 2.18 × 10^4 M^-1.
As to `COc1cccc(/C=N/C(CO)(CO)CO)c1O` [3b, (E)-2-((2-hydroxy-3-methoxybenzylidene)amino)-2-(hydroxymethyl)propane-1,3-diol], the “K b, 10^4 (M^-1) / 293 K” value was 17.09 × 10^4 M^-1.
